# Experimental data: ChEMBL document CHEMBL5608212, “N-acylbenzimidazoles as selective Acylators of the catalytic cystein of the coronavirus 3CL protease” (Eur J Med Chem, 2024)
# Several values for one entry are separate records, joined by “and”; a condition that tells them apart may be missing. Equal entries are not always repeated. Activity calls are given as the source filed them. The calls are words filed in the database; no cut-off is given here.
# Assays:
# [1] = target: Replicase polyprotein 1ab (Severe acute respiratory syndrome coronavirus 2) (UniProt P0DTD1); test: Inhibition of SARS-CoV-2 3CLpro using Dabcyl-KTSAVLQSGFRKM-Glu(Edans) as substrate at 100 uM preincubated for 1 hrs in presence of 2 mM GSH followed by substrate addition and measured after 30 mins by FRET assay relative to control; conditions: time 1.5 hrs
# [2] = target: T1, Replicase polyprotein 1ab (Severe acute respiratory syndrome coronavirus 2, UniProt P0DTD1); test: Inhibition of SARS-CoV-2 3CLpro using Dabcyl-KTSAVLQSGFRKM-Glu(Edans) as substrate preincubated for 1 hrs in presence of 2 mM GSH followed by substrate addition and measured after 30 mins by FRET assay
# [3] = target: T1, Replicase polyprotein 1ab; test: Inhibition of SARS-CoV-2 3CLpro using Dabcyl-KTSAVLQSGFRKM-Glu(Edans) as substrate preincubated for 60 mins in presence of GSH followed by substrate addition and measured after 30 mins by FRET assay
# [4] = target: Replicase polyprotein 1ab (Human coronavirus 229E, UniProt P0C6X1); test: Inhibition of hCoV-229E 3CLpro using Dabcyl-KTSAVLQSGFRKM-Glu(Edans) as substrate preincubated 1 hr in presence of 2 mM GSH followed by substrate addition and measured after 30 mins by FRET assay
# Chain of Replicase polyprotein 1ab (Human coronavirus 229E, UniProt P0C6X1) (P0C6X1 2966-3267 limits assumed): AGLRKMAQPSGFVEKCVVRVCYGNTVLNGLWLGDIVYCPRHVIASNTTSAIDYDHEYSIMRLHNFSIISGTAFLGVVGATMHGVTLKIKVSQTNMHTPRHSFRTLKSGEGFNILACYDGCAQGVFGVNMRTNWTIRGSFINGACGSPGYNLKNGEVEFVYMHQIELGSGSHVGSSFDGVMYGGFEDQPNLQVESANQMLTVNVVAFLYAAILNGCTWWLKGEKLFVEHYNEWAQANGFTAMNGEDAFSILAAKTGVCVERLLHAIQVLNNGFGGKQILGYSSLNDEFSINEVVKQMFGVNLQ
# [5] = GSH reactivity in HEPES buffer at pH 7.4 assessed as half life at 1 uM; assay type: ADME; conditions: glutathione (GSH) in HEPES buffer
# [6] = Inhibition of MERS-CoV 3CLpro using Dabcyl-KTSAVLQSGFRKM-Glu(Edans) as substrate preincubated 1 hr in presence of 2 mM GSH followed by substrate addition and measured after 30 mins by FRET assay; parameters: species or system Middle East respiratory syndrome-related coronavirus
# SARS-CoV-2 = test: microbe, parasite or virus in culture; conditions: Severe acute respiratory syndrome coronavirus 2, Vero
# [7] = Inhibition of C-terminal 6-His tagged recombinant SARS-CoV 3CLpro (Ser1 to Gln306 residues) extracted from Escherichia coli using Dabcyl-KTSAVLQSGFRKM-Glu(Edans) as substrate preincubated 1 hr in presence of 2 mM GSH followed by substrate addition and measured after 30 mins by FRET assay; parameters: species or system Severe acute respiratory syndrome-related coronavirus
# [8] = target: T2, Calpain-1 catalytic subunit (Homo sapiens, UniProt P07384); test: Inhibition of human calpain 1 using (DABCYL)-TPLKSPPPSPR-(EDANS) as substrate incubated for 30 mins in presence of calcium ions and GSH and measured after 30 mins by fluorescence based assay
# T2 sequence (P07384 whole entry): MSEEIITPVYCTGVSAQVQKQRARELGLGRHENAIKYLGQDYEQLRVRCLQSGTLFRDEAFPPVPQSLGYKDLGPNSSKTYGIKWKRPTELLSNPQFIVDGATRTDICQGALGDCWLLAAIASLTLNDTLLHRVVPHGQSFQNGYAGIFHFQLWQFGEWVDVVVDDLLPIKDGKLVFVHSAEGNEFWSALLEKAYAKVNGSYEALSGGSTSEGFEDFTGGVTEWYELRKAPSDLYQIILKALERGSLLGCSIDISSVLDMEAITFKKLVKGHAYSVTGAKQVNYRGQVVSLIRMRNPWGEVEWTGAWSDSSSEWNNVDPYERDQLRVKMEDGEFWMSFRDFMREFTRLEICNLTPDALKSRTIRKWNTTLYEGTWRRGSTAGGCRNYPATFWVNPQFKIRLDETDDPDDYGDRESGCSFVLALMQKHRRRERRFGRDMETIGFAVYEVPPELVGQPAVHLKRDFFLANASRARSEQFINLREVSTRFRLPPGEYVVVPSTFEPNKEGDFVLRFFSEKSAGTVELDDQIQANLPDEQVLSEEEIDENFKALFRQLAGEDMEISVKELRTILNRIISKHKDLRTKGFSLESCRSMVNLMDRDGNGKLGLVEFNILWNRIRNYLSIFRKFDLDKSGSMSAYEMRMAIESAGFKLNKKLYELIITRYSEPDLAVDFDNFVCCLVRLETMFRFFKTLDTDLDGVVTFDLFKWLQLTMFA
# Human coronavirus 229E = test: Antiviral activity against HCoV-229E expressing renilla luciferase reporter gene infected in human Huh-7 cells pre-infected […] for 1 hr followed by compound addition and measured after 6 hrs by luciferase based assay; assay type: functional, organism-based
# [9] = Inhibition of human cathepsin 1 using QXL520/HiLyteFlour 488 as substrate preincubated for 60 mins and measured after 30 mins by fluorescence based assay
# [10] = target: T1, Replicase polyprotein 1ab; test: Inhibition of SARS-CoV-2 3CLpro using Dabcyl-KTSAVLQSGFRKM-Glu(Edans) as substrate preincubated for 60 mins in absence of GSH followed by substrate addition and measured after 30 mins by FRET assay
# [11] = target: Replicase polyprotein 1ab (Severe acute respiratory syndrome coronavirus 2) (UniProt P0DTD1); test: Reversible inhibition of SARS-CoV-2 3CLpro using Dabcyl-KTSAVLQSGFRKM-Glu(Edans) as substrate at 10 times IC50 preincubated for 1 hr followed by 100-fold dilution to 0.1 times IC50 with substrate solution by jump dilution assay
# [12] = target: Replicase polyprotein 1ab (Severe acute respiratory syndrome coronavirus 2) (UniProt P0DTD1); test: Binding affinity to SARS-CoV-2 3CLpro assessed as change in melting temperature at 40 uM measured after 30 mins by SYPRO Orange staining based thermal shift assay
# [13] = target: Replicase polyprotein 1ab (Severe acute respiratory syndrome coronavirus 2) (UniProt P0DTD1); test: Binding affinity to 2H,15N-labelled SARS-CoV-2 3CLpro substrate binding pocket assessed as chemical shift perturbations at interface of domains I and II at 500 uM by 2D 1H,15N-HSQC NMR analysis
# [14] = target: T1, Replicase polyprotein 1ab; test: Inhibition of SARS-CoV-2 3CLpro using Dabcyl-KTSAVLQSGFRKM-Glu(Edans) as substrate preincubated for 30 mins followed by substrate addition and measured after 30 mins by FRET assay
Structure (SMILES),pIC50 [2],IC50 ([2]; read-out: IC50),also measured
Cc1ccc(C(=O)n2c(CC#N)nc3ccccc32)cc1,–,–,inhibition [1]: 68%
CSc1nc2ccccc2n1S(=O)(=O)c1ccc(C)cc1,< 4,> 100000 nM,–
Cc1ccc(C(=O)n2ccc3ccccc32)cc1,< 4,> 100000 nM,–
Cc1ccc(C(=O)n2c(C)nc3cc4c(cc32)OCCO4)cc1,–,7500 nM,–
CSc1nc2cc3c(cc2n1C(=O)c1ccc(C)cc1)OCO3,–,70 nM,IC50 ([3]; read-out: pIC50 (converted)): 120 nM; IC50 [4]: 750 nM; half-life at 1 µM [5]: 16 min; IC50 [6]: 990 nM; pIC50 [6]: 6.01; EC50 (SARS-CoV-2): 3100 nM; IC50 [7]: 150 nM; pIC50 [7]: 6.82; IC50 [8]: > 100000 nM; EC50 (Human coronavirus 229E): 4800 nM; IC50 [9]: > 100000 nM; IC50 ([10]; read-out: pIC50 (converted)): 85.1 nM; inhibition [11]: Active
CSc1nc2ccccc2n1C(=O)c1ccc(Cl)cc1,–,1100 nM,–
Cc1ccc(C(=O)n2c(Cl)nc3ccccc32)cc1,–,–,inhibition [1]: 61%
COc1cc2nc(SC)n(C(=O)c3ccc(C)cc3)c2cc1OC,–,6800 nM,–
COc1ccc(C(=O)n2c(SC)nc3ccccc32)cc1,–,3000 nM,–
CSc1nc2ccccc2n1C(=O)c1ccc(F)cc1,–,3800 nM,–
CSc1nc2ccccc2n1C(=O)c1ccc(C(C)(C)C)cc1,< 4,> 100000 nM,–
CSc1nc2ccccc2n1C(=O)Oc1ccccc1,< 4,> 100000 nM,–
CSc1nc2ccccc2n1C(=O)c1ccccc1C(F)(F)F,< 4,> 100000 nM,–
Cc1ccc(C(=O)n2c(C)nc3ccccc32)cc1F,–,150 nM,IC50 [4]: 2600 nM; IC50 [6]: 2800 nM; pIC50 [6]: 5.56; IC50 [7]: 210 nM; pIC50 [7]: 6.67; IC50 [8]: > 100000 nM; EC50 (Human coronavirus 229E): 25400 nM; IC50 [9]: > 100000 nM
CSc1nc2ccc(Cl)cc2n1C(=O)c1ccc(C)cc1,–,890 nM,IC50 ([2]; read-out: pIC50 (converted)): 269 nM
CSc1nc2cc(C)c(C)cc2n1C(=O)c1ccc(C)cc1,–,–,inhibition [1]: 68%
CSc1nc2ccccc2n1C(=O)c1ccccc1,–,2500 nM,–
CSc1nc2cc3c(cc2n1C(=O)c1ccc(C)c(F)c1)OCO3,–,70 nM,IC50 [4]: 320 nM; IC50 [6]: 2900 nM; pIC50 [6]: 5.53; pIC50 [7]: 6.49; EC50 (Human coronavirus 229E): 29200 nM
CSc1nc2ccccc2n1C(=O)NCc1ccc(C)cc1,< 4,> 100000 nM,–
CSc1nc2ccccc2n1C(=O)c1cccc(C(F)(F)F)c1,–,33700 nM,–

Structure (SMILES),pIC50 [2],IC50 ([2]; read-out: IC50),also measured
Cc1ccc(C(=O)n2c(C#N)nc3ccccc32)cc1,< 4,> 100000 nM,–
Cc1ccc(C(=O)n2c(C)nc3ccccc32)cc1,–,3430 nM,–
COc1cc(C(=O)n2c(SC)nc3ccccc32)ccc1C,–,660 nM,–
Cc1ccc(C(=O)n2c(-c3ccccc3)nc3ccccc32)cc1,< 4,> 100000 nM,–
CSc1nc2ccccc2n1C(=O)c1ccsc1,–,2400 nM,–
CSc1nc2ccccc2n1C(=O)c1ccc(C)c(Cl)c1,–,150 nM,–
CSc1nc2ccc(F)cc2n1C(=O)c1ccc(C)c(F)c1,–,260 nM,–
Cc1ccc(C(=O)n2c(S)nc3ccccc32)cc1,< 4,> 100000 nM,–
CSc1nc2ccccc2n1C(=O)c1ccc(C)cc1,–,390 nM,IC50 [4]: 1900 nM; IC50 [6]: 5000 nM; pIC50 [6]: 5.3; IC50 [7]: 1600 nM; pIC50 [7]: 5.81; IC50 [8]: > 100000 nM; IC50 [9]: > 100000 nM; ΔTm [12]: 4.2 °C
COc1ccc(C(=O)n2c(SC)nc3ccccc32)cc1OC,–,4000 nM,–
CSc1nc2ccccc2n1C(C)=O,< 4,> 100000 nM,–
CSc1nc2ccccc2n1C(=O)c1ccc2c(c1)OCCO2,–,1000 nM,–
CSc1nc2ccc(C#N)cc2n1C(=O)c1ccc(C)c(F)c1,–,6300 nM,–
Cc1ccc(C(=O)n2cnc3ccccc32)cc1,–,6700 nM and 6660 nM,–
Cc1ccc(C(=O)n2nnc3ccccc32)cc1,< 4,> 100000 nM,–
CCc1ccc(C(=O)n2c(SC)nc3ccccc32)cc1,–,1800 nM,–
CSc1nc2cc3c(cc2n1C(=O)c1ccc(C)cc1)OCCO3,–,140 nM,IC50 ([3]; read-out: IC50): 390 nM; IC50 [4]: 190 nM; IC50 [6]: 2500 nM; pIC50 [6]: 5.6; Activity [13]: Active; IC50 [14]: 140 nM; IC50 [7]: 1700 nM; pIC50 [7]: 5.77; IC50 [8]: > 100000 nM; EC50 (Human coronavirus 229E): 7300 nM; IC50 [9]: > 100000 nM; ΔTm [12]: 1.47 °C; IC50 ([10]; read-out: IC50): 380 nM
CSc1nc2cc3c(cc2n1C(=O)c1ccc(C)c(F)c1)OCCO3,–,270 nM,–
CSc1nc2ccc(F)cc2n1C(=O)c1ccc(C)cc1,–,200 nM,–
CSc1nc2cc(F)ccc2n1C(=O)c1ccc(C)cc1,–,270 nM,–

Structure (SMILES),pIC50 [2],IC50 ([2]; read-out: IC50),also measured
C=CCSc1nc2ccccc2n1C(=O)c1ccc(C)cc1,–,5440 nM,–
CSc1nc2ccccc2n1C(=O)c1ccc(C)c(F)c1,–,90 nM,IC50 [4]: 350 nM; IC50 [6]: 1300 nM; pIC50 [6]: 5.89; IC50 [7]: 340 nM; pIC50 [7]: 6.47; IC50 [8]: > 100000 nM; EC50 (Human coronavirus 229E): 35600 nM; IC50 [9]: > 100000 nM
CSc1nc2ccccc2n1C(=O)c1cccc(C)c1,–,2100 nM,–
CSc1nc2cc(C#N)ccc2n1C(=O)c1ccc(C)c(F)c1,–,890 nM,–
Cc1ccc(C(=O)n2ncc3ccccc32)cc1,< 4,> 100000 nM,–
CSc1nc2ccccc2n1C(=O)c1ccc(C(F)(F)F)cc1,–,2720 nM,–
CSc1nc2cc(F)ccc2n1C(=O)c1ccc(C)c(F)c1,–,100 nM,–
CCSc1nc2ccccc2n1C(=O)c1ccc(C)cc1,–,3760 nM,–
COc1nc2ccccc2n1C(=O)c1ccc(C)cc1,< 4,> 100000 nM,–
CSc1nc2ccccc2n1C(=O)C1CC1,–,–,inhibition [1]: 61%
CCc1nc2ccccc2n1C(=O)c1ccc(C)cc1,–,6550 nM,–
CSc1nc2ccccc2n1Cc1ccc(C)cc1,< 4,> 100000 nM,–
CSc1nc2ccccc2n1C(=O)c1ccc(C)c(C)c1,–,1000 nM,–
CSc1nc2cc(Cl)ccc2n1C(=O)c1ccc(C)cc1,–,550 nM,–
Cc1ccc(C(=O)n2c(C(F)(F)F)nc3ccccc32)cc1,–,17000 nM,–
CC(C)C[C@H](NC(=O)OCc1ccccc1)C(=O)N[C@@H](CC1CCNC1=O)C(O)S(=O)(=O)O (stereo partly drawn),–,–,IC50 [6]: 340 nM; pIC50 [6]: 6.47; IC50 [7]: 50 nM; pIC50 [7]: 7.33; IC50 [9]: 1 nM
CSc1nc2ccccc2n1C(=O)Cc1ccccc1,< 4,> 100000 nM,–
CSc1nc2ccccc2n1C(=O)c1ccncc1,< 4,> 100000 nM,–
Cc1ccc(C(=O)n2c(N)nc3ccccc32)cc1,< 4,> 100000 nM,–
CSc1nc2ccccc2n1C(=O)c1ccccc1C,< 4,> 100000 nM,–
